Where two headings read alike, the source gives them in different places.
Experiments:
[1] = tested on: NQO1 specific enzyme activity in BEAS-2B cells (marker for NRF2 activation); test: BEAS-2B NQO1 MTT Assay; type: cell-based; conditions: Homo sapiens, compound incubated 48 hours, read-out: EC50 (NQO1 specific enzyme activity induction)
Procedure, shortened: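 NQO1 specific activity induction is derived from the rate of MTT reduction (ΔOD/min, 570 nm, 30 min kinetic read) in crude lysates of BEAS-2B cells exposed to compound for 48 h. A 3-parameter fit gives EC50, reported as pEC50; part of each lysate goes to Cell Titer Glo.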

[2] = biological target: T1, Keap1 Kelch domain (321-609) / TAMRA-labeled 16mer NRF2 peptide (ETGE motif) (Homo sapiens, UniProt Q14145); test: NRF2-Keap1 FP Assay (Keap1 Kelch fluorescence polarization); type: binding; conditions: 20 nM Keap1 (321-609), 8 nM Tamra labeled peptide
T1 construct: the Kelch domain (321-609) of Keap1 is used
Procedure, shortened: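 Compound dilutions (3-fold) were incubated 1 hr at room temperature with 20 nM Keap1 Kelch (321-609) and 8 nM TAMRA-labeled ETGE 16mer peptide. Buffer was 50 mM Tris pH 8.0, 100 mM NaCl, 5 mM MgCl2, 1 mM DTT, 2 mM CHAPS, 0.005% BSA. Fluorescence polarization (mP) was normalized to controls and fitted with a four-parameter equation to give pIC50.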

T1 sequence (Q14145 321-609): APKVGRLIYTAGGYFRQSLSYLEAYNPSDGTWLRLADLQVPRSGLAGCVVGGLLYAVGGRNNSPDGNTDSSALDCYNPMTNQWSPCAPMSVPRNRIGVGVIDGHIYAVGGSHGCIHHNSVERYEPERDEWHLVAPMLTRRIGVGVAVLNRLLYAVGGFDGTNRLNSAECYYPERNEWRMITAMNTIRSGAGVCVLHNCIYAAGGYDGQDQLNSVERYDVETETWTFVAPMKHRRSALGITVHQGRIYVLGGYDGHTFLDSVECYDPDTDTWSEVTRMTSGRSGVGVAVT

Q: Cn1cc(C2CC2c2c(C(=O)O)cnn2-c2cccc(-c3cccc(C(O)CC4CCCCC4)c3)c2)nn1 (stereo not drawn) [Example 217, 1-(3′-(2-Cyclohexyl-1-hydroxyethyl)-[1,1′-biphenyl]-3-yl)-5-(2-(1-methyl-1H-1,2,3-triazol-4-yl)cyclopropyl)-1H-pyrazole-4-carboxylic acid] was tested. Which EC50 [1] did it give?
A: Its EC50 is 100 to 1000 nM.

Q: And the IC50 [2]?
A: The IC50 was 100 to 1000 nM.

Q: How did the EC50 [1] turn out when Cn1cc([C@@H]2C[C@H]2c2c(C(=O)O)cnn2-c2cccc(-c3cccc(OCC4CCCCC4C(F)(F)F)c3)c2)nn1 (mixture of isomers) [Example 148, 5-((1,2-trans)-2-(1-Methyl-1H-1,2,3-triazol-4-yl)cyclopropyl)-1-(3′-((2-(trifluoromethyl)cyclohexyl)methoxy)-[1,1′-biphenyl]-3-yl)-1H-pyrazole-4-carboxylic acid] was run?
A: Its EC50 is 10 to 100 nM.

Q: What about the IC50 [2] of the same compound?
A: Its IC50 is 10 to 100 nM.

Q: Cn1cc([C@H]2C[C@@H]2c2c(C(=O)O)cnn2-c2cccc(-c3cccc(OC[C@H]4CC[C@H](Cl)CC4)c3)c2)nn1 (racemic) [Example 185, 1-(3′-((4-Chlorocyclohexyl)methoxy)-[1,1′-biphenyl]-3-yl)-5-((1,2-trans)-2-(1-methyl-1H-1,2,3-triazol-4-yl)cyclopropyl)-1H-pyrazole-4-carboxylic Acid] was tested. Which EC50 [1] did it give?
A: Its EC50 is 10 to 100 nM.

Q: And the IC50 [2]?
A: The IC50 was 100 to 1000 nM.

Q: Which results are given for COC(c1cccc(-c2cccc(-n3ncc(C(=O)O)c3C3CC3c3cn(C)nn3)c2)c1)C1CCCC1 (stereo not drawn) [Example 183, 1-(3′-(Cyclopentyl(methoxy)methyl)-[1,1′-biphenyl]-3-yl)-5-(2-(1-methyl-1H-1,2,3-triazol-4-yl)cyclopropyl)-1H-pyrazole-4-carboxylic acid]?
A: EC50 [1]: 100 to 1000 nM; IC50 [2]: 10 to 100 nM

Q: How did the EC50 ([1]; BEAS-2B, 48 h) turn out when CCC[C@@H]1CCCCN1C(=O)c1cccc(-c2cccc(-n3ncc(C(=O)O)c3C3CC3c3cnn(C)c3)c2)c1F (stereo partly drawn) [Example 214, 1-(2′-Fluoro-3′-((R)-2-propylpiperidine-1-carbonyl)-[1,1′-biphenyl]-3-yl)-5-(2-(1-methyl-1H-pyrazol-4-yl)cyclopropyl)-1H-pyrazole-4-carboxylic Acid] was run?
A: Its EC50 is 100 to 1000 nM.

Q: What about the IC50 [2] of the same compound?
A: Its IC50 is 10 to 100 nM.

Q: Which EC50 ([1]; BEAS-2B, 48 h) does the source give for CC(Oc1cccc(-c2cccc(-n3ncc(C(=O)O)c3C3CC3c3cn(C)nn3)c2)c1)C1CCCCC1 (stereo not drawn) [Example 219, 1-(3′-(1-Cyclohexylethoxy)-[1,1′-biphenyl]-3-yl)-5-(2-(1-methyl-1H-1,2,3-triazol-4-yl)cyclopropyl)-1H-pyrazole-4-carboxylic acid] here?
A: Its EC50 is 10 to 100 nM.

Q: What about the IC50 [2] of the same compound?
A: The IC50 was 10 to 100 nM.

Q: With CCCC1CCCCN1C(=O)c1cccc(-c2cccc(-n3ncc(C(=O)O)c3C3CC3c3cccnn3)c2)c1 (stereo not drawn) [Example 41, 1-[3′-(2-Propyl-piperidine-1-carbonyl)-biphenyl-3-yl]-5-(2-pyridazin-3-yl-cyclopropyl)-1H-pyrazole-4-carboxylic Acid] as the compound, how does the EC50 ([1]; BEAS-2B, 48 h) read?
A: The EC50 was 1000 to 10000 nM.

Q: What about the IC50 [2] of the same compound?
A: Its IC50 is 10 to 100 nM.

Q: Cn1cc([C@@H]2C[C@H]2c2c(C(=O)O)cnn2-c2cccc(-c3cccc(OCC4CCC(F)(F)CC4)c3)c2)nn1 (racemic) [Example 145, 1-(3′-((4,4-Difluorocyclohexyl)methoxy)-[1,1′-biphenyl]-3-yl)-5-((1,2-trans)-2-(1-methyl-1H-1,2,3-triazol-4-yl)cyclopropyl)-1H-pyrazole-4-carboxylic acid] was tested. Which EC50 [1] did it give?
A: The EC50 was 100 to 1000 nM.

Q: What about the IC50 [2] of the same compound?
A: The IC50 was 10 to 100 nM.

Q: Which EC50 [1] does the source give for Cn1cc(C2CC2c2c(C(=O)O)cnn2-c2cccc(-c3cccc(C(=O)CC4CCCCC4)c3)c2)nn1 (stereo not drawn) [Example 215, 1-(3′-(2-Cyclohexylacetyl)-[1,1′-biphenyl]-3-yl)-5-(2-(1-methyl-1H-1,2,3-triazol-4-yl)cyclopropyl)-1H-pyrazole-4-carboxylic Acid] here?
A: The EC50 was 100 to 1000 nM.

Q: And the IC50 [2]?
A: The IC50 was 10 to 100 nM.

Q: With Cn1cc([C@H]2C[C@@H]2c2c(C(=O)O)cnn2-c2cccc(-c3cccc(OCC4CCCC(Cl)C4)c3)c2)nn1 (mixture of isomers) [Example 187, 1-(3′-((3-chlorocyclohexyl)methoxy)-[1,1′-biphenyl]-3-yl)-5-((1,2-trans)-2-(1-methyl-1H-1,2,3-triazol-4-yl)cyclopropyl)-1H-pyrazole-4-carboxylic acid] as the compound, how does the EC50 [1] read?
A: Its EC50 is 10 to 100 nM.

Q: And the IC50 [2]?
A: Its IC50 is 100 to 1000 nM.

Q: How did the EC50 ([1]; BEAS-2B, 48 h) turn out when CCC[C@@H]1CCCCN1C(=O)c1cccc(-c2cc(Cl)cc(-n3ncc(C(=O)O)c3C3CC3c3cn(C)nn3)c2)c1 (stereo partly drawn) [Example 160, 1-(5-Chloro-3′-((R)-2-propylpiperidine-1-carbonyl)-[1,1′-biphenyl]-3-yl)-5-(2-(1-methyl-1H-1,2,3-triazol-4-yl)cyclopropyl)-1H-pyrazole-4-carboxylic Acid Compound with 2,2,2-trifluoroacetic Acid (1:1)] was run?
A: The EC50 was 100 to 1000 nM.

Q: What about the IC50 [2] of the same compound?
A: Its IC50 is 10 to 100 nM.

Q: CCC[C@@H]1CCCCN1C(=O)c1cccc(-c2cccc(-n3ncc(C(=O)O)c3C3CC3c3cn(C)nn3)n2)c1 (stereo partly drawn) [Example 196, 5-(2-(1-Methyl-1H-1,2,3-triazol-4-yl)cyclopropyl)-1-(6-(3-((R)-2-propylpiperidine-1-carbonyl)phenyl)pyridin-2-yl)-1H-pyrazole-4-carboxylic Acid] was tested. Which EC50 ([1]; BEAS-2B, 48 h) did it give?
A: Its EC50 is 100 to 1000 nM.

Q: What about the IC50 [2] of the same compound?
A: Its IC50 is 10 to 100 nM.

Q: CCCC1(C)CCc2cnn(-c3cccc(-c4cccc(-n5ncc(C(=O)O)c5C5CC5)c4)c3)c21 (stereo not drawn) [Example 205, 5-Cyclopropyl-1-(3′-(6-methyl-6-propyl-5,6-dihydrocyclopenta[c]pyrazol-1(4H)-yl)-[1,1′-biphenyl]-3-yl)-1H-pyrazole-4-carboxylic Acid] was tested. Which EC50 [1] did it give?
A: Its EC50 is 100 to 1000 nM.

Q: And the IC50 [2]?
A: The IC50 was 100 to 1000 nM.

Q: What does the source list for Cn1cc([C@@H]2C[C@H]2c2c(C(=O)O)cnn2-c2cccc(-c3cccc(OC(C4CCCCC4)C(F)(F)F)c3)c2)nn1 (mixture of isomers) [Example 157, 1-(3′-(1-Cyclohexyl-2,2,2-trifluoroethoxy)-[1,1′-biphenyl]-3-yl)-5-((1,2-trans)-2-(1-methyl-1H-1,2,3-triazol-4-yl)cyclopropyl)-1H-pyrazole-4-carboxylic Acid]?
A: EC50 [1]: 10 to 100 nM; IC50 [2]: 100 to 1000 nM

Q: How did the EC50 ([1]; BEAS-2B, 48 h) turn out when CCCC1CCCCN1C(=O)c1cccc(-c2cccc(-n3ncc(C(=O)O)c3C3CC3c3cn(C)nn3)c2)c1 (stereo not drawn) [Example 42, 5-[2-(1-methyl-1H-1,2,3-triazol-4-yl)cyclopropyl]-1-{3-[3-(2-propylpiperidine-1-carbonyl)phenyl]phenyl}-1H-pyrazole-4-carboxylic Acid] was run?
A: The EC50 was 100 to 1000 nM.

Q: And the IC50 [2]?
A: The IC50 was 10 to 100 nM.

Q: Which results are given for C[C@@H]1CCC[C@H](C)N1C(=O)c1cccc(-c2cccc(-n3ncc(C(=O)O)c3C3CC3)c2)c1F [Example 21, 5-Cyclopropyl-1-(3-{3-[(2R,6S)-2,6-dimethylpiperidine-1-carbonyl]-2-fluorophenyl}phenyl)-1H-pyrazole-4-carboxylic Acid]?
A: EC50 [1]: 100 to 1000 nM; IC50 [2]: 10 to 100 nM

Q: For CO[C@H]1CC[C@H](COc2cccc(-c3cccc(-n4ncc(C(=O)O)c4[C@H]4C[C@@H]4c4cn(C)nn4)c3)c2)CC1 (racemic) [Example 176, 1-(3′-(((1R,4S)-4-Methoxycyclohexyl)methoxy)-[1,1′-biphenyl]-3-yl)-5-((1,2-trans)-2-(1-methyl-1H-1,2,3-triazol-4-yl)cyclopropyl)-1H-pyrazole-4-carboxylic acid], which EC50 [1] is on record?
A: The EC50 was 100 to 1000 nM.

Q: And the IC50 [2]?
A: The IC50 was 10 to 100 nM.

Q: For Cn1cc(C2CC2c2c(C(=O)O)cnn2-c2cccc(-c3cccc(OCc4ccccc4F)c3)c2)nn1 (stereo not drawn) [Example 222, 1-(3′-((2-Fluorobenzyl)oxy)-[1,1′-biphenyl]-3-yl)-5-(2-(1-methyl-1H-1,2,3-triazol-4-yl)cyclopropyl)-1H-pyrazole-4-carboxylic acid], which EC50 [1] is on record?
A: The EC50 was 100 to 1000 nM.

Q: What about the IC50 [2] of the same compound?
A: Its IC50 is 10 to 100 nM.

Q: With CC(Oc1cccc(-c2cccc(-n3ncc(C(=O)O)c3[C@@H]3C[C@H]3c3cn(C)nn3)c2)c1)C1CCCCC1 (stereo partly drawn) [Example 163, 1-(3′-(1-Cyclohexylethoxy)-[1,1′-biphenyl]-3-yl)-5-((1R,2R)-2-(1-methyl-1H-1,2,3-triazol-4-yl)cyclopropyl)-1H-pyrazole-4-carboxylic acid] as the compound, how does the EC50 ([1]; BEAS-2B, 48 h) read?
A: Its EC50 is 10 to 100 nM.

Q: What about the IC50 [2] of the same compound?
A: The IC50 was 100 to 1000 nM.

Q: What does the source list for Cn1cc(C2CC2c2c(C(=O)O)cnn2-c2cccc(-c3cccc(SCC4CCCCC4)c3)c2)nn1 (stereo not drawn) [Example 179, 1-(3′-((Cyclohexylmethyl)thio)-[1,1′-biphenyl]-3-yl)-5-(2-(1-methyl-1H-1,2,3-triazol-4-yl)cyclopropyl)-1H-pyrazole-4-carboxylic acid]?
A: EC50 [1]: 1 to 10 nM; IC50 [2]: 10 to 100 nM

Q: Which EC50 [1] does the source give for CCCCC1CCc2cnn(-c3cccc(-c4cccc(-n5ncc(C(=O)O)c5C5CC5)c4)c3)c21 (stereo not drawn) [Example 206, 1-(3′-(6-Butyl-5,6-dihydrocyclopenta[c]pyrazol-1(4H)-yl)-[1,1′-biphenyl]-3-yl)-5-cyclopropyl-1H-pyrazole-4-carboxylic Acid] here?
A: Its EC50 is 100 to 1000 nM.

Q: What about the IC50 [2] of the same compound?
A: The IC50 was 100 to 1000 nM.

Q: Cn1cc(C2CC2c2c(C(=O)O)cnn2-c2cccc(-c3cccc(C(=O)C4CCCCC4)c3)c2)nn1 (stereo not drawn) [Example 243, 1-(3′-(Cyclohexanecarbonyl)-[1,1′-biphenyl]-3-yl)-5-(2-(1-methyl-1H-1,2,3-triazol-4-yl)cyclopropyl)-1H-pyrazole-4-carboxylic Acid] was tested. Which EC50 [1] did it give?
A: The EC50 was 100 to 1000 nM.

Q: And the IC50 [2]?
A: The IC50 was 10 to 100 nM.

Q: Which EC50 ([1]; BEAS-2B, 48 h) does the source give for O=C(O)c1cnn(-c2cccc(-c3cccc(-n4ncc5c4CCC5)c3)c2)c1C1CC1 [Example 61, 5-Cyclopropyl-1-(3′-(5,6-dihydrocyclopenta[c]pyrazol-1(4H)-yl)-[1,1′-biphenyl]-3-yl)-1H-pyrazole-4-carboxylic Acid] here?
A: The EC50 was 100 to 1000 nM.

Q: What about the IC50 [2] of the same compound?
A: The IC50 was 100 to 1000 nM.

Q: Which results are given for CCC[C@@H]1CCCCN1C(=O)c1cccc(-c2cc(C)cc(-n3ncc(C(=O)O)c3C3CC3c3cn(C)nn3)c2)c1 (stereo partly drawn) [Example 154, 5-(2-(1-Methyl-1H-1,2,3-triazol-4-yl)cyclopropyl)-1-(5-methyl-3′-((R)-2-propylpiperidine-1-carbonyl)-[1,1′-biphenyl]-3-yl)-1H-pyrazole-4-carboxylic Acid]?
A: EC50 ([1]; BEAS-2B, 48 h): 100 to 1000 nM; IC50 [2]: 10 to 100 nM

From US10364256B2 (GlaxoSmithKline Intellectual Property Development Limited, priority 2015, dated 2019)
